Source: patent US20070264241A1, “Compounds for Enhanced Cancer Therapy” (priority 2004, published 2007)
Entries after “also recorded” stand apart in the source; their conditions may differ.

Tests used:
[1] = test system: GFAP in hGBM-1, hGBM-5 and hGBM-14 cells; assay: GFAP expression by immunocytochemistry and Western blot in primary glioblastoma cultures; format: cell-based, human
Method: (§1) Tumour cells cultured on laminin/poly-ornithine coated glass chamber slides were washed in phosphate buffered saline (PBS) and fixed in 4% paraformaldehyde in phosphate buffer for 10 minutes. Cells were washed in PBS three times and incubated with primary antibodies diluted in buffer (0.3% TX-100 (Sigma), albumin fraction V (Sigma), phosphate buffer pH 7.0) over night at 4° C. Secondary antibodies conjugated with FITC or Cy3 (Jackson lmmunoresearch Laboratories) were applied for one hour at room temperature, followed by rinsing with PBS. Antibodies bound were visualized with epifluorescence microscopy using a Leica DMRB microscope, and photographs were taken using a Nikon F50 camera. The following antibodies were used at specified dilutions: monoclonal anti GFAP, 1:500 (DAKO), monodonal anti Cx43 (1:1000, Transduction Laboratories), and FITC (1:80)-conjugated secondary antibodies (Jackson lmmunoresearch Laboratories). Primary glioblastoma cells were grown to 75% confluency and cultured for 48 hours in the presence or absence of 4-PB (2, 5 and 10 mM) and processed as previously described (Asklund et al, Exp cell Res, 2003, 284:183-193). Briefly, cell extracts, containing equal amount of protein (30 μg/lane for Cx43 detection and 60 μg/lane for GFAP detection) were loaded on 10% polyacrylamide gels, separated by SDS-PAGE, and electro-transferred onto nitrocellulose membranes. A rabbit polyclonal antibody to Cx43 diluted 1:8000 (Sigma) or a mouse monoclonal antibody to GFAP diluted 1:1000 (Pharmingen) were applied overnight at 40° C. The detection step was performed with the enhanced chemiluminescence (ECL) detection kit (Amersham). The membranes were exposed to Hyperfilm-ECL (Amersham) for 1-5 min. For quantification, films were scanned and analysed with Image Gauge (version 3.12, Fuji Photo Film Corp.). Data analysis was performed using the program Sigma Plot for Windows (version 6, Jandel Corp.). All results are expressed as means ± SE for the indicated number of experiments (FIG. 6).

[2] = test system: hGBM-1, hGBM-5 and hGBM-14 glioblastoma cultures; assay: MTT assay of cell viability and proliferation in primary glioblastoma cultures; format: cell-based, human
Method: Proliferation of cultured glioma cells was assessed by 3-(4,5-dimethylthiazol-2-yl)-2,5-diphenyltetrazolium bromide (MTT, Sigma) assay. MTT tetrazolium salt was dissolved in serum-free culture medium (0.5 mg/ml), added to the cells (150 μl/well) and incubated for 30 min at 37° C. Formazan dye, formed by viable cells, was solubilized in 300 μl of isopropanol. Aliquots (100 μl) of the solutions were transferred to 96-well microplates. The absorbance at 570 nm (with reference at 650 nm) was measured using a microtiter plate spectrophotometer (Anthos HT III). The results were expressed as percentage of viablecells compared to the control sample of untreated cells (100%).

[3] = test system: GFAP and connexin 43 in S6 cells; assay: Western blot of GFAP and connexin 43 in S6 glioma cells after 4-PB; format: cell-based, Rat; details: 2 mM 4-PB for 2 days
Method: Protein from S6 cells treated with 4-PB for 48 h was extracted and a Western blot analysis was performed. The intensity of the Cx43 specific signal was determined by imager and the activation of Cx43 was calculated. S6 cells not treated with 4-PB acted as reference.

[4] = test system: gap junction communication in primary glioblastoma cells (hGBM-1); assay: Fluorescent dye (calcein/Dil) transfer between primary glioblastoma cells; format: cell-based, human; details: recipient cells 5 mM 4-PB for 48 hours prior to dye transfer
Method: Primary glioblastoma cells were cultured on 35 mm petri dishes and in vitro labelled with 5 μM calcein-AM (acetomethylic ester) and 10 μM Dil (Molecular Probes) diluted in supplemented serum free medium DMEM/F12 and incubated for 30 min at 37° C. The cells were washed once with the same medium, trypsinized and suspended in the culture medium induding 10% FBS. The cells were pelleted by centrifugation at 1600 rpm for 1 minute and resuspended in fresh culture medium. The procedure was repeated twice. Following the second resuspension, the labelled cells were plated on top of unlabelled cells of the same origin. These cells were either pretreated with 4-PB at a concentration of 5 mM, or non-treated for serving as a control. The labeled cells were then allowed to settle for 1 hour, followed by analyses using epifluorescence detection microscopy every 30 minutes for up to 6 hours. GJC (gap-junction communication) were studied using an Olympus BX50WI microscope equipped with UV epifluorescence and red and green attenuating filters.

[5] = test system: Cx43 in hGBM-1, hGBM-5 and hGBM-14 cells; assay: Connexin 43 expression by immunocytochemistry and Western blot in primary glioblastoma cultures; format: cell-based, human
Method: as §1, with “Briefly, cell extracts, containing equal amount of protein (30 μg/lane for Cx43 detection and 60 μg/lane for GFAP detection) were loaded on 10% polyacrylamide gels, separated by SDS-PAGE, and electro-transferred onto nitrocellulose membranes. A rabbit polyclonal antibody to Cx43 diluted 1:8000 (Sigma) or a mouse monoclonal antibody to GFAP diluted 1:1000 (Pharmingen) were applied overnight at 40° C. The detection step was performed with the enhanced chemiluminescence (ECL) detection kit (Amersham). The membranes were exposed to Hyperfilm-ECL (Amersham) for 1-5 min.” left out, “Data analysis was performed using the program Sigma Plot for Windows (version 6, Jandel Corp.).” left out

## 4-phenylbutyrate [4-PB]
[1]; 4-PB 2, 5, 10 mM, 48 hours
  phosphorylated isoform of GFAP (Western blot): remained stable
[1]; all three cultures, 5 mM 4-PB for 48 hours
  GFAP immunostaining intensity (immunocytochemistry): more intense immunostaining; also recorded: increased
[1]; hGBM-5 and hGBM-14, 4-PB 2, 5, 10 mM, 48 hours
  non-phosphorylated isoform of GFAP (Western blot): upregulated; also recorded: increase
[2]; after 24 hours of treatment
  anti-proliferative effect by phase contrast microscopy: Anti-proliferative effects were seen
[2]; hGBM-1 culture
  4-PB concentration at which the culture shows significant sensitivity (MTT): 5 mM
[2]; hGBM-5 culture
  4-PB concentration at which the culture is significantly affected (MTT): 10 mM
[2]; hGBM-14 culture
  4-PB concentration at which the culture is significantly affected (MTT): 10 mM
[3]
  expression of GFAP: increased expression
  expression of connexin 43: increased expression
[4]
  intercellular spread of calcein (gap junction dye transfer): markedly improved; also recorded: facilitated gap junction dependent calcein transfer substantially
[5]; 5 mM 4-PB for 48 hours
  Cx43 immunoreactivity at the cell surface (immunocytochemistry): marked increase
[5]; 4-PB 2-10 mM, 48 hours
  non-phosphorylated and phosphorylated isoforms of Cx43 (Western blot): increased quantitatively; also recorded: marked increase
